Legend:
Type in all cases: functional
Conditions in all cases: route intraperitoneal
[1] = tested on: Rattus norvegicus; assay: Inhibition of dopamine-beta-hydroxylase in Wistar rat assessed as reduction of adrenal catecholamine level at 50 mg/kg, ip after 24 hrs assessed per adrenal pair (reference value: 10.6 +/- 0.7 ug)
[2] = tested on: Rattus norvegicus; assay: Inhibition of dopamine-beta-hydroxylase in Wistar rat assessed as reduction of adrenal catecholamine level at 50 mg/kg, ip after 6 hrs assessed per adrenal pair (reference value: 10.6 +/- 0.7 ug)
[3] = tested on: Rattus norvegicus; assay: Inhibition of dopamine-beta-hydroxylase in Wistar rat assessed as reduction of norepinephrine level in heart at 50 mg/kg, ip after 6 hrs (reference value: 0.55 +/- 0.04 ug/g)
[4] = tested on: Rattus norvegicus; assay: Inhibition of dopamine-beta-hydroxylase in Wistar rat assessed as reduction of norepinephrine level in heart at 50 mg/kg, ip after 24 hrs (reference value: 0.55 +/- 0.04 ug/g)
[5] = tested on: Rattus norvegicus; assay: Inhibition of dopamine-beta-hydroxylase in Wistar rat assessed as reduction of adrenal catecholamine level at 50 mg/kg, ip after 3 hrs assessed per adrenal pair (reference value: 10.6 +/- 0.7 ug)
[6] = tested on: Rattus norvegicus; assay: Inhibition of dopamine-beta-hydroxylase in Wistar rat assessed as reduction of norepinephrine level in brain at 50 mg/kg, ip after 6 hrs (reference value: 0.67 +/- 0.02 ug/g)
[7] = tested on: Rattus norvegicus; assay: Inhibition of dopamine-beta-hydroxylase in Wistar rat assessed as reduction of norepinephrine level in brain at 50 mg/kg, ip after 3 hrs (reference value: 0.67 +/- 0.02 ug/g)
[8] = tested on: Rattus norvegicus; assay: Inhibition of dopamine-beta-hydroxylase in Wistar rat assessed as reduction of norepinephrine level in heart at 50 mg/kg, ip after 3 hrs (reference value: 0.55 +/- 0.04 ug/g)
[9] = tested on: Rattus norvegicus; assay: Inhibition of dopamine-beta-hydroxylase in Wistar rat assessed as reduction of norepinephrine level in brain at 50 mg/kg, ip after 24 hrs (reference value: 0.67 +/- 0.02 ug/g)

Br.CCCCCn1cnc(N)c2ncnc1-2.Cl
Activity [1]: 11.3 µg | Activity [2]: 12.1 µg | Activity [3]: 0.57 µg/g | Activity [4]: 0.56 µg/g | Activity [5]: 14.1 µg | Activity [6]: 0.62 µg/g | Activity [7]: 0.65 µg/g | Activity [8]: 0.59 µg/g | Activity [9]: 0.62 µg/g
